Earlier results on one molecule are cited in patent US20100292326A1, “PHARMACEUTICAL COMPOSITION COMPRISING S-NITROSOGLUTATHIONE AND POLYSACCHARIDE” (priority 2007, published 2010).

The conditions of the series: buffer.

Take `N[C@@H](CCC(=O)N[C@@H](CSN=O)C(=O)NCC(=O)O)C(=O)O` [GSNO, S-nitrosoglutathione]: the half-life (commonly the time in which the quantity being followed falls by half) is 5.5 h.
